# Laboratory results published in PMC13065503.
# Assay: Cys/Cys side-chain stapling of bis-cysteine Omomyc mutants by S-alkylation with bis(bromomethyl)arenes (1.25 eq): 4,4'-bis(bromomethyl)biphenyl for i,i+7 or 1,3-bis(bromomethyl)benzene (with 2 eq TCEP) for i,i+4; pH 8
# Conditions: the molecule shown is the open-chain precursor; 22-membered ring; 100 mM aq NH4HCO3 pH 8 / 25% MeCN; 0.1 mM
row,Substance,"ring closure, isolated yield"
1,H-AMADIGSMAC(SH)EENC(SH)KRRTHNVLERQRRNELKRSFFALRDQIPELENNEKAPKVVILKKATAYILSVQAETQKLISEIDLLRKQNEQLKHKLEQLRNSAA-OH,38%
2,H-AMADIGSMATEENC(SH)KRRC(SH)HNVLERQRRNELKRSFFALRDQIPELENNEKAPKVVILKKATAYILSVQAETQKLISEIDLLRKQNEQLKHKLEQLRNSAA-OH,26%

# Same assay, conditions: the molecule shown is the open-chain precursor; 36-membered ring; 100 mM aq NH4HCO3 pH 8 / 25% MeCN; 0.1 mM
row,Substance,"ring closure, isolated yield"
1,H-AMADIGSMATEENC(SH)KRRTHNC(SH)LERQRRNELKRSFFALRDQIPELENNEKAPKVVILKKATAYILSVQAETQKLISEIDLLRKQNEQLKHKLEQLRNSAA-OH,67%
2,H-AMADIGSMATEENVKRRTHNC(SH)LERQRRC(SH)ELKRSFFALRDQIPELENNEKAPKVVILKKATAYILSVQAETQKLISEIDLLRKQNEQLKHKLEQLRNSAA-OH,69%
3,H-AMADIGSMATEENVKRRTHNC(SH)LERQRRC(SH)ELKRSFFALRDQIPELENNEKAPKVVILKKATAYILSVQAETQKLISEIDLLRKQNEQLKHKLEQLRNSAAPAAKRVKLD-OH,60%
4,H-AMADIGSPAAKRVKLDMATEENVKRRTHNC(SH)LERQRRC(SH)ELKRSFFALRDQIPELENNEKAPKVVILKKATAYILSVQAETQKLISEIDLLRKQNEQLKHKLEQLRNSAA-OH,46%
